Values quoted from earlier work in patent US9060950B2, “Emetic embedded capsule” (Paul H. Rosenberg, Proximate Concepts, LLC., priority 2005, dated 2015).
Counter-ions that a name gives are not always drawn.

How the values were obtained:
[1] = not given; remark: listed apart in the source

Compound: Cc1nnc2n1-c1ccc(Cl)cc1C(c1ccccc1Cl)=NC2 [Triazolm]
- amount ingested after which manifestations of overdose may occur (ingestion): 2 mg

Compound: O.O.O.O.O.O.O.O=S(=O)([O-])[O-].[Zn+2] [Zinc sulfate heptahydrate]
- amount ingested that causes emesis [1]: 0.6 grams

Compound: CC(=O)Nc1ccc(O)cc1 [acetaminophen, Acetaminophen]
- amount ingested following which hepatic toxicity may occur (in vivo): 7.5 grams
- amount ingested following which fatalities may occur (ingestion): 15 grams

Compound: CNCCC(Oc1ccc(C(F)(F)F)cc1)c1ccccc1 (centres unmarked) [fluoxetine hydrochloride, Fluoxetine hydrochloride]
- ingested amount reported to have caused death (ingestion): 520 mg
